Experimental data as given in paper PMC10002517, “Inhibition of Transglutaminase 2 as a Therapeutic Strategy in Celiac Disease—In Vitro Studies in Intestinal Cells and Duodenal Biopsies” (International Journal of Molecular Sciences, 2023).

Key:
[1] = tested on: transepithelial passage of P56-88 in Caco-2 cells; experiment: Transepithelial transport of promofluor-conjugated gliadin peptide P56-88 across Caco-2 monolayers (fluorometry); assay type: cell-based, human; conditions: 3 h; for transepithelial passage of P56-88 (relative basal fluorescence): 7 µg/mL peptide apical in HBSS, normalized to no inhibitor, mean ± SD, n = 3
Procedure: Transepithelial transport of immunogenic and toxic gliadin peptides were examined in Caco-2 cells 7–14 days after confluency. Caco-2 cells were seeded on semi-permeable transwell supports (ThinCert, culture surface: 33.6 mm², pore size: 0.4 µm) in 24-well plates (Greiner Bio One, Pleidelsheim, Germany). Prior to the transport experiments, the integrity of the cell monolayer was tested by measuring the transepithelial electric resistance (TEER) using a volt-ohm meter (Millipore, Schwalbach, Germany). Monolayers with insufficient TEER (<350 Ω/cm^2) were omitted. The synthesis and purification of promofluor-conjugated gliadin peptides were described elsewhere. Cells were either incubated with the immunogenic peptide P56-88 ([…]) or the toxic gliadin peptide P31-43 (LGQQQPFPPQQPY), 7 µg/mL each, in Hank’s balanced salt solution (HBSS) for 3 h. To investigate the role of TG2 on the transport of gliadin peptides, incubation was performed in the presence of ERW1041 and PX-12. After 3 h, basal and apical supernatants were collected, and the relative fluorescence of the basal compartment was quantified using a FLUOstar Optima (BMG Labtech) microplate reader. Background subtraction was performed against conditions, where no labeled peptides were used. Normalization was performed against conditions, where no inhibitors were used.

[2] = molecular target: T1, TG2 in Caco-2 cell lysates (Homo sapiens, UniProt P21980); experiment: Transglutaminase activity in Caco-2 whole cell lysates (5BP cross-linking); assay type: biochemical; conditions: 10 µM inhibitor (b1); lysate of differentiated Caco-2 cells incubated with 5BP and inhibitor overnight; mean ± SD, n = 3
T1 construct: endogenous in cells; host or cells: Caco-2 (differentiated; IFN-γ-stimulated in the monolayer assay)
T1 sequence (P21980 1-687): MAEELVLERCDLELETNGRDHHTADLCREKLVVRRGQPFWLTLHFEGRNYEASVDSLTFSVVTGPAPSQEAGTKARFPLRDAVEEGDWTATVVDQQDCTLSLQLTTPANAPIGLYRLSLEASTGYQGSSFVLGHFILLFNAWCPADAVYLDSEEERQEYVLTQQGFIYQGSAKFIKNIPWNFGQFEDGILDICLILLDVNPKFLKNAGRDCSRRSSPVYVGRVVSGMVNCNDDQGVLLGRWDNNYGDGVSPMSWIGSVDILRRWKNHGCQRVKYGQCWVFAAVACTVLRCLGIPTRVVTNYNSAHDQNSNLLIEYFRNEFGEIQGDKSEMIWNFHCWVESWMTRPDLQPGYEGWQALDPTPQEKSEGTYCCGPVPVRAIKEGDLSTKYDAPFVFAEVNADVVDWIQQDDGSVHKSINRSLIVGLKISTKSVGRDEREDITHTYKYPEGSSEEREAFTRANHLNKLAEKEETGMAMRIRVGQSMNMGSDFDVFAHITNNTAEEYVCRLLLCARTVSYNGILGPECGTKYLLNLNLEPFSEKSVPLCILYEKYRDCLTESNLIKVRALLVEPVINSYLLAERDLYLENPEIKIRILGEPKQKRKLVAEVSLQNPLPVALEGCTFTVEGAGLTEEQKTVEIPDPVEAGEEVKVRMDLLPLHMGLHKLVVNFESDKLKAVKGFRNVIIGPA
Procedure: The method to investigate TG2 activity from whole cell lysates was adapted from Lin et al.. In brief, 20 µg protein per cavity on the 96-well plate were incubated in 50 mM Tris, 1 mM EDTA, 5 mM calcium chloride (pH 7.5) buffer in the presence of 500 µM 5BP (5-biotinamidopentylamine, Thermo Fisher Scientific, Langenselbold, Germany) for the indicated time. After incubation, the plate was washed three times with PBS + 0.05% Tween. After blocking with 5% BSA in PBS for 1 h, the plate was incubated with 2 µg/mL streptavidin-Alexa Fluor 488 (Thermo Fisher Scientific) in 5% BSA. After 3 washing steps with PBS + 0.05% Tween, fluorometric evaluation was performed using a Clariostar Plus (BMG Labtech) microplate reader (no well scan mode, excitation 488 nm, emission 535 nm, fixed gain: 2000).

[3] = molecular target: T2, TG2 in the intestinal lamina propria (Homo sapiens, UniProt P21980); experiment: TG2 activity in cryosections of duodenal biopsies from CD patients (5BP, confocal microscopy); assay type: biochemical; conditions: 1 h before 5BP, mean ± SD, n = 6 patients
T2 construct: from tissue; host or cells: duodenal biopsies from celiac disease patients (unfixed 400 nm cryosections, lamina propria)
T2 sequence (P21980 1-687): T1 sequence (P21980 1-687)
Procedure: For immunofluorescence microscopic investigation of transglutaminase activity, only biopsies with minor macroscopic inflammatory signs were used. After endoscopy, biopsies were immediately washed three times in PBS and cryopreserved in polyvinylpyrrolidone sucrose at 4 °C overnight. Biopsies were mounted on specimen holders using Tissue-Tek O.C.T (Sakura Finetek, Staufen im Breisgau, Germany) compound and frozen in liquid nitrogen. For evaluation of transglutaminase activity by the post-embedding procedure, 400 nm cryosections were obtained using a cryo-ultramicrotome (Leica EM UC6, Leica, Wetzlar, Germany) and mounted on class cover slides. After three brief washes with PBS, tissue sections were incubated with the indicated concentrations of the inhibitors for 1 h in tris buffer. Then, the TG2 substrate 5BP was incubated for 1 h at 37 °C in tris buffer containing DTT at the indicated concentration. Slides were washed three times in PBS, fixed in 4% paraformaldehyde (10 min), permeabilized with 0.5% Triton (10 min) and incubated with blocking solution (0.1% cold water fish skin gelatin + 5% BSA + 5% goat serum, 10 min). Afterwards, a rabbit polyclonal antibody directed against human TG2 (Kan5, kindly provided by Dr T. Mothes, Institute of Laboratory Medicine, University Hospital Leipzig, Germany) was applied at 1:200 dilution in blocking solution overnight at 4 °C. After three washing steps (each 5 min) with PBS, Alexa Fluor-555-conjugated secondary antibody (goat-anti-rabbit, 1:200, Thermo Fisher Scientific) and Alexa Fluor-488-conjugated streptavidin (2 µg/mL, Thermo Fisher Scientific) were incubated at room temperature in the dark for 1 h. After three washes with PBS, samples were covered in ProLong Gold antifade mountant (Thermo Fisher Scientific) and sealed with clear nail polish. Sealed slides were stored in the dark at 4 °C until microscopy.
Imaging was done using a confocal laser scanning microscope (TE2000-E, Nikon, Langen, Germany) and a 60× Plan Apo (NA 1.41) immersion oil objective. The detailed acquisition settings and the corresponding macro (Image J [46]) for image processing can be accessed in the Supplementary Materials methods (S1). Five images per patient where quantified. For quantitation, mean fluorescence intensity of TG2 activity (488 nm channel) was normalized to TG2 expression (555 nm channel) within the intestinal lamina propria.

[4] = 100 µM inhibitor, untreated 0.94 ± 0.26 (ERW1041) or 0.91 ± 0.28 (PX-12)

SMILES	transepithelial passage of P56-88 (relative basal fluorescence) ([1]; 1 µM inhibitor)	transepithelial passage of P56-88 (relative basal fluorescence) ([1]; 100 µM inhibitor)	TG2 activity in Caco-2 cell lysates [2]	TG2 activity normalized against TG2 expression in the lamina propria ([3]; 1 µM inhibitor, untreated 0.94 ± 0.26)	TG2 activity normalized against TG2 expression in the lamina propria [3, 4]	effect on the epithelial translocation of P56-88 [1]
O=C(NC[C@@H]1CC(Br)=NO1)[C@@H]1CCCN1C(=O)OCc1cnc2ccccc2c1 [ERW1041]	33 ± 22%	24 ± 16%	45 ± 19%	0.58 ± 0.27	0.31 ± 0.17	
CCC(C)SSc1ncc[nH]1 (centres unmarked) [PX-12, 2-[(1-methylpropyl)dithio]-1H-imidazole]			12 ± 7%		0.44 ± 0.21	no significant effect
